Where a SMILES comes first, the peptide text is derived from it.
How the values were obtained:
[1] = Stability of peptides in mouse serum; format: in vitro ADME; details: C57BL/6 mouse serum, 10 ppm/reaction, 24 h vs 0 h (without mixing with serum), formic acid precipitation, LC (ZORBAX Eclipse C18) with ELSD; one range printed for both peptides; Figure S6A
Protocol: collected after centrifugation at 13,000 × g for 10 min and stored at -20 ℃. To analyze, we used the ZORBAX Eclipse C18 Column (2.6 × 250 mm, 5 μm) in the Agilent 1200 Infinity LC and kept the column temperature at 40 ℃. Injection volume from samples was 20 μL and for the mobile phase, MS grade water with 0.1% formic acid (‘a’) and MS grade acetonitrile (‘b’) were flowed at the velocity of 1 mL/min. The gradient per sample was ‘a’ (5%)/’b’(95%) for 0 and 5 min, ‘a’ (90%)/’b’(10%) for 10 min, and ‘a’ (40%)/’b’(60%) for 15 min. Agilent 1260 infinity ELSD was used with an LC stack for detection. […]

STrEP-tagged TM4SF5WT = STrEP-tagged TM4SF5WT (UniProt O14894); assay: streptavidin pull-down and immunoblot; details: SNU449 cells with STrEP-TM4SF5; 50 kDa band, IP: STrEP lanes
[2] = test system: SNU449T7 cells stably expressing TM4SF5; assay: Mouse tumor xenograft of TM4SF5-expressing SNU449 cells; format: in vivo, BALB/c-nu/nu mice
Protocol: Mouse tumor xenograft: Four-week-old female or male BALB/c-nu/nu mice were purchased from Orient Co. Ltd (Seungnam, Korea). All animal procedures were performed in accordance with the Seoul National University Laboratory Animal Maintenance Manual and with Institutional Review Board approval (SNU-130311-6-2, SNU-140423-11-7). Mice were housed in a specific pathogen-free room under controlled temperature and humidity. Viable SNU449T7 cells (5 × 10^6) stably expressing TM4SF5 or PLC/PRF/5 cells (10^7) endogenously expressing TM4SF5 were resuspended in sterile PBS and injected subcutaneously into 5-week-old mice (n = 5 or 6, respectively). […] Body weight and tumor volume, which was determined as described previously, were measured daily.
Figure 7 TM4SF5 C-terminal peptides suppress TM4SF5-mediated tumorigenesis and metastasis. […] (E) Degradation of Oregon Green® 488-conjugated gelatin were analyzed for SNU761 cells stably expressing mock (mock) or TM4SF5WT with the 10 μM CPPs treatment for 24 h (mean ± SD values). (F) TM4SF5-null SNU449Cp (Cp) and stably TM4SF5-expressing SNU449Tp (Tp) cells were treated with the 10 μM CPPs for 24 h and then analyzed for transwell migration for 4 h (mean ± SD values in the graph). […] Surface nodules were counted and the mean ± SD values are presented (graph). […]

[3] = test system: SNU449Tp cells expressing FAK-KD; assay: Transwell migration of FAK-KD-expressing SNU449Tp cells with PP2 or PP3; format: cell-based, human; details: SNU449Tp cells infected with FAK-KD adenovirus, 10 μM, transwell migration 12 h, 10% FBS in lower chamber; Figure S1C
SNU761-TM4SF5 cells = assay: Transwell chemotactic migration of SNU761-TM4SF5 cells with PP2; format: cell-based, human; details: PP2 10 μM, transwell migration 4 h, 10% FBS; Figure 3F and S2B
Protocol: SNU761 cells stably expressing TM4SF5WT were transiently transfected with control siRNA against a scrambled sequence (siControl) or PTP1B (siPTP1B) for 48 h before undergoing the Transwell migration assay for 4 h. Cells were treated with the CPPs before being loaded into the upper chambers. The cells were then analyzed for migration or invasion using Transwell chambers with 8-μm pores (Corning Inc., Corning, NY, USA), where the bottom chamber was filled with 1% BSA alone (in serum-free media) or normal culture media containing 10% FBS as explained previously. After incubation, the number of migrated cells from randomly saved images (n = 10) per condition was counted. The data are graphed as the mean ± standard deviation (SD) for each experimental condition.
Figure S2. TM4SF5-mediated invasion and migration involves PTP1B-regulated c-Src activity. (A) SNU761 cells stably expressing mock or TM4SF5WT were transiently transfected without (No T/F) or with c-Src WT, c-Src SH432, or c-Src SH1 expression constructs for 48 h prior to invasive ECM degradation analysis for 4 h. (B) SNU761 cells stably expressing TM4SF5WT were transiently transfected with control siRNA against a scrambled sequence (siControl) or a sequence in PTP1B (siPTP1B) for 48 h, prior to transwell migration assay for 4 h. […]

Chain of STrEP-tagged TM4SF5WT (O14894 whole entry): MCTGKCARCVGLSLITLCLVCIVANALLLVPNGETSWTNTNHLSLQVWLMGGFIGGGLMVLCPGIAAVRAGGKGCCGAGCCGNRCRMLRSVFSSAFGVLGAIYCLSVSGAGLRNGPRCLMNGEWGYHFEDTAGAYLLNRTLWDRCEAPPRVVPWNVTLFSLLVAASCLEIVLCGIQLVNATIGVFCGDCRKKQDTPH

| response (relative band intensity (ImageJ ratio)) (STrEP-tagged TM4SF5WT) | Compound | peptide remaining after incubation in mouse serum [1] | also measured |
| --- | --- | --- | --- |
| – | C[C@@H](O)[C@H](NC(=O)[C@@H]1CCCN1C(=O)[C@H](CCCNC(=N)N)NC(=O)[C@H](CCCNC(=N)N)NC(=O)[C@H](CCCNC(=N)N)NC(=O)[C@H](CCC(N)=O)NC(=O)[C@H](CCCNC(=N)N)NC(=O)[C@H](CCCNC(=N)N)NC(=O)[C@H](CCCCN)NC(=O)[C@H](CCCCN)NC(=O)[C@@H](N)CCCNC(=N)N)C(=O)N[C@@H](CS)C(=O)N[C@@H](CCCCN)C(=O)N1CCC[C@H]1C(=O)N[C@@H](CC(=O)O)C(=O)N[C@@H](CCCCN)C(=O)NCC(=O)N[C@@H](CCC(N)=O)C(=O)N[C@@H](CCCNC(=N)N)C(=O)N[C@@H](Cc1c[nH]cn1)C(=O)N[C@@H](CC(=O)O)C(=O)O [TCsr] (H-RKKRRQRRRPTCKPDKGQRHD-OH) | 44-65% | – |
| 0 | c-Src-SH321 Y419F; Y530F | – | – |
| 0 | c-Src-SH321 Y530F | – | – |
| 1 | c-Src-SH321 Y419F | – | – |
| – | CC[C@H](C)[C@H](NC(=O)[C@@H](NC(=O)[C@H](CS)NC(=O)[C@@H]1CCCN1C(=O)[C@H](CCCNC(=N)N)NC(=O)[C@H](CCCNC(=N)N)NC(=O)[C@H](CCCNC(=N)N)NC(=O)[C@H](CCC(N)=O)NC(=O)[C@H](CCCNC(=N)N)NC(=O)[C@H](CCCNC(=N)N)NC(=O)[C@H](CCCCN)NC(=O)[C@H](CCCCN)NC(=O)[C@@H](N)CCCNC(=N)N)C(C)C)C(=O)N[C@@H](CCSC)C(=O)NCC(=O)N[C@@H](CC(=O)O)C(=O)N[C@@H](CS)C(=O)N[C@@H](CCCNC(=N)N)C(=O)N[C@@H](CCCCN)C(=O)N[C@@H](CCCCN)C(=O)N[C@@H](CCC(N)=O)C(=O)N[C@@H](CC(=O)O)C(=O)N[C@H](C(=O)N1CCC[C@H]1C(=O)N[C@@H](Cc1c[nH]cn1)C(=O)O)[C@@H](C)O [TcxC] (H-RKKRRQRRRPCVIMGDCRKKQDTPH-OH) | 44-65% | – |
| – | CC(C)(C)n1nc(-c2ccc(Cl)cc2)c2c(N)ncnc21 [PP2] | – | TM4SF5-dependent tumor formation in xenograft ([2]; 3 mg/kg subcutaneous injection every day for 10 days, n = 4, Figure S5A): suppressed TM4SF5-dependent tumor formation; effect on xenograft tumor growth, 15-day treatment ([2]; n = 6, 15 days, PP2 3 mg/kg, TCsr 0.111 nmol/g, TcxC 0.095 nmol/g, Figure S5B): suppressive effect; residual migration of FAK-KD cells [3]: abolished; chemotactic migration of SNU761-TM4SF5 cells (SNU761-TM4SF5 cells): abolished |

Reference: paper PMC8315060, “N-terminus-independent activation of c-Src via binding to a tetraspan(in) TM4SF5 in hepatocellular carcinoma is abolished by the TM4SF5 C-terminal peptide application” (Theranostics, 2021)
